Source: article PMC10104807, “Modulation of tau tubulin kinases (TTBK1 and TTBK2) impacts ciliogenesis” (Scientific Reports, 2023)
Read-outs that look alike come from different tables or passages of the source.

Experiments:
[1] = test system: 403 wild-type (WT) human kinases; experiment: DiscoverX scanMAX kinome-wide selectivity; format: binding; conditions: for # scanMAX kinases with PoC < 10: 1 μM; for S10(1 μM): share of 403 WT human kinases with PoC < 10 at 1 μM
Text: This panel includes 403 wild-type (WT) human kinases but not TTBK1/2. […] Substantial overlap between the MRC and DiscoverX scanMAX kinase panels allows the comparison of results for the same kinases in two different assay formats (enzymatic versus binding, respectively) at the same concentration. Selectivity results are included in two columns within Table 1. […] The rightmost column converts this selectivity score into the number of kinases with a PoC < 10 in the scanMAX panel.
The Eurofins DiscoverX Corporation scanMAX assay platform was employed to assess the selectivity of specific analogs at a single concentration (1 µM). As described previously, this assay platform profiles a compound against 403 wild-type human kinases and delivers percent of control (PoC) values. These percent of control values are included in Table 1 and corresponding kinome tree diagrams as well as tables for each analog included in Fig. S1.

[2] = molecular target: T1, JAK2(JH1domain-catalytic) (Homo sapiens, UniProt O60674); experiment: DiscoverX scanMAX binding assay
T1 construct: JAK2(JH1domain-catalytic); purchased Eurofins (radiometric) / Eurofins DiscoverX scanMAX / Reaction Biology / SignalChem
How it was run: (§1)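 Each analog was screened once at 1 µM for kinase binding within a 403-member wild-type human panel. Data are given as percent of control; selectivity was also summarised as the count of kinases with PoC < 10.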

MAP3K2 = molecular target: T2, MAP3K2 (Homo sapiens, UniProt Q9Y2U5); experiment: DiscoverX scanMAX binding assay
T2 construct: purchased Eurofins (radiometric) / Eurofins DiscoverX scanMAX / Reaction Biology / SignalChem
How it was run: as §1

MAP3K3 = molecular target: T3, MAP3K3 (Homo sapiens, UniProt Q99759); experiment: DiscoverX scanMAX binding assay
T3 construct: purchased Eurofins (radiometric) / Eurofins DiscoverX scanMAX / Reaction Biology / SignalChem
How it was run: as §1

MEK4 = molecular target: T4, MEK4 (Homo sapiens, UniProt P45985); experiment: DiscoverX scanMAX binding assay; conditions: 1 μM
T4 construct: purchased Eurofins (radiometric) / Eurofins DiscoverX scanMAX / Reaction Biology / SignalChem
How it was run: as §1

MYLK4 = molecular target: T5, MYLK4 (Homo sapiens, UniProt Q86YV6); experiment: DiscoverX scanMAX binding assay; conditions: 1 μM
T5 construct: purchased Eurofins (radiometric) / Eurofins DiscoverX scanMAX / Reaction Biology / SignalChem
How it was run: as §1

PAK4 = molecular target: T6, PAK4 (Homo sapiens, UniProt O96013); experiment: DiscoverX scanMAX binding assay
T6 construct: purchased Eurofins (radiometric) / Eurofins DiscoverX scanMAX / Reaction Biology / SignalChem
How it was run: as §1

PAK6 = molecular target: T7, PAK6 (Homo sapiens, UniProt Q9NQU5); experiment: DiscoverX scanMAX binding assay
T7 construct: purchased Eurofins (radiometric) / Eurofins DiscoverX scanMAX / Reaction Biology / SignalChem
How it was run: as §1

PAK7 = molecular target: T8, PAK7 (Homo sapiens, UniProt Q9P286); experiment: DiscoverX scanMAX binding assay
T8 construct: purchased Eurofins (radiometric) / Eurofins DiscoverX scanMAX / Reaction Biology / SignalChem
How it was run: as §1

PIKfyve = molecular target: T9, PIKfyve (Homo sapiens, UniProt Q9Y2I7); experiment: DiscoverX scanMAX binding assay; conditions: 1 μM
T9 construct: purchased Eurofins (radiometric) / Eurofins DiscoverX scanMAX / Reaction Biology / SignalChem
How it was run: as §1

PRKX = molecular target: T10, PRKX (Homo sapiens, UniProt P51817); experiment: DiscoverX scanMAX binding assay
T10 construct: purchased Eurofins (radiometric) / Eurofins DiscoverX scanMAX / Reaction Biology / SignalChem
How it was run: as §1

TTBK1 kinase domain = molecular target: T11, TTBK1 kinase domain (Homo sapiens, UniProt Q5TCY1); experiment: Thermal shift assay; format: binding; conditions: kinase domain 2 µM, inhibitor 10 µM
T11 construct: Either the TTBK1 or TTBK2 kinase domain at 2 µM
Procedure: A Real-Time PCR Mx3005p machine (Stratagene) was used to measure the fluorescence spectrum. The Tm shift assays and data evaluation for melting temperatures were performed according to the previously described protocol.

NLuc-TTBK1 = molecular target: T12, NLuc-TTBK1 (Homo sapiens, UniProt Q5TCY1); experiment: TTBK1 NanoBRET cellular target engagement assay in HEK293 cells; format: cell-based; conditions: 2 μM tracer 29
T12 construct: host or cells: HEK293
Procedure: HEK293 cells were transfected with constructs of TTBK1 or TTBK2 tagged with NLuc on the N- or C-terminus as previously described[43] Constructs for NanoBRET measurements of TTBK1 (NLuc-TTBK1 and TTBK1-NLuc) and TTBK2 (NLuc-TTBK2 and TTBK2-NLuc) were kindly provided by Promega. NLuc orientations used in the respective assays are indicated. Cells were plated in 96-well tissue culture treated plates (Corning 3917) at a cell density of 2 × 10^5 cells/mL, with a total volume of 100 μL per well in DMEM. […] NanoBRET plates were read after addition of 50 μL of a stock solution (3X) containing NanoBRET NanoGlo substrate (Promega N2161), extracellular NanoLuc inhibitor (Promega N2161) and Opti-MEM. For a 96-well plate the 3X stock solution was prepared with 30 μL of NanoBRET NanoGlo substrate, 10 μL of extracellular NanoLuc inhibitor, and 4960 μL of Opti-MEM without phenol red. […] HEK293 cells were transfected with NLuc-TTBK1 or NLuc-TTBK2. […] One biological replicate was plotted in GraphPad Prism with log[inhibitor] vs. response (three parameters) and included in Fig. 3C. NanoBRET assays were carried out in dose-response format as described previously. NLuc orientations used in the respective assays are as follows: NLuc-TTBK1, NLuc-TTBK2, and PIP4K2C-NLuc (for PI5[…]γ). […] Data are reported as IC50 ± standard error mean (SEM). For PI5[…]γ, 9 was tested in 12-point dose-response format with a top concentration of 10 μM (data in Table S2). One biological replicate was plotted in GraphPad Prism with log[inhibitor] vs. response (three parameters).

CHEK2 = molecular target: T13, CHEK2 (Homo sapiens, UniProt O96017); experiment: DiscoverX scanMAX binding assay; conditions: 1 μM
T13 construct: purchased Eurofins (radiometric) / Eurofins DiscoverX scanMAX / Reaction Biology / SignalChem
How it was run: as §1

CSNK1D = molecular target: T14, CSNK1D (Homo sapiens, UniProt P48730); experiment: DiscoverX scanMAX binding assay; conditions: 1 μM
T14 construct: purchased Eurofins (radiometric) / Eurofins DiscoverX scanMAX / Reaction Biology / SignalChem
How it was run: as §1

CSNK1E = molecular target: T15, CSNK1E (Homo sapiens, UniProt P49674); experiment: DiscoverX scanMAX binding assay; conditions: 1 μM
T15 construct: purchased Eurofins (radiometric) / Eurofins DiscoverX scanMAX / Reaction Biology / SignalChem
How it was run: as §1

PRKCE = molecular target: T16, PRKCE (Homo sapiens, UniProt Q02156); experiment: DiscoverX scanMAX binding assay; conditions: 1 μM
T16 construct: purchased Eurofins (radiometric) / Eurofins DiscoverX scanMAX / Reaction Biology / SignalChem
How it was run: as §1

[3] = molecular target: T17, RPS6KA4(Kin.Dom.2-C-terminal) (Homo sapiens, UniProt O75676); experiment: DiscoverX scanMAX binding assay; conditions: 1 μM
T17 construct: RPS6KA4(Kin.Dom.2-C-terminal); purchased Eurofins (radiometric) / Eurofins DiscoverX scanMAX / Reaction Biology / SignalChem
How it was run: as §1

AURKB = molecular target: T18, AURKB (Homo sapiens, UniProt Q96GD4); experiment: DiscoverX scanMAX binding assay; conditions: 1 μM
T18 construct: purchased Eurofins (radiometric) / Eurofins DiscoverX scanMAX / Reaction Biology / SignalChem
How it was run: as §1

BRAF(V600E) = molecular target: T19, BRAF(V600E) (Homo sapiens, UniProt P15056, V600E); experiment: DiscoverX scanMAX binding assay; conditions: 1 μM
T19 construct: purchased Eurofins (radiometric) / Eurofins DiscoverX scanMAX / Reaction Biology / SignalChem

PFCDPK1(P.falciparum) = molecular target: T20, PFCDPK1(P.falciparum) (Plasmodium falciparum, UniProt P62344); experiment: DiscoverX scanMAX binding assay; conditions: 1 μM
T20 construct: purchased Eurofins (radiometric) / Eurofins DiscoverX scanMAX / Reaction Biology / SignalChem
How it was run: as §1

[4] = intact HEK293 cells, read-out: TTBK1 intact cell NB IC50
[5] = permeabilized HEK293 cells (digitonin), read-out: TTBK1 permeabilized cell NB IC50

T12 sequence (Q5TCY1 whole entry): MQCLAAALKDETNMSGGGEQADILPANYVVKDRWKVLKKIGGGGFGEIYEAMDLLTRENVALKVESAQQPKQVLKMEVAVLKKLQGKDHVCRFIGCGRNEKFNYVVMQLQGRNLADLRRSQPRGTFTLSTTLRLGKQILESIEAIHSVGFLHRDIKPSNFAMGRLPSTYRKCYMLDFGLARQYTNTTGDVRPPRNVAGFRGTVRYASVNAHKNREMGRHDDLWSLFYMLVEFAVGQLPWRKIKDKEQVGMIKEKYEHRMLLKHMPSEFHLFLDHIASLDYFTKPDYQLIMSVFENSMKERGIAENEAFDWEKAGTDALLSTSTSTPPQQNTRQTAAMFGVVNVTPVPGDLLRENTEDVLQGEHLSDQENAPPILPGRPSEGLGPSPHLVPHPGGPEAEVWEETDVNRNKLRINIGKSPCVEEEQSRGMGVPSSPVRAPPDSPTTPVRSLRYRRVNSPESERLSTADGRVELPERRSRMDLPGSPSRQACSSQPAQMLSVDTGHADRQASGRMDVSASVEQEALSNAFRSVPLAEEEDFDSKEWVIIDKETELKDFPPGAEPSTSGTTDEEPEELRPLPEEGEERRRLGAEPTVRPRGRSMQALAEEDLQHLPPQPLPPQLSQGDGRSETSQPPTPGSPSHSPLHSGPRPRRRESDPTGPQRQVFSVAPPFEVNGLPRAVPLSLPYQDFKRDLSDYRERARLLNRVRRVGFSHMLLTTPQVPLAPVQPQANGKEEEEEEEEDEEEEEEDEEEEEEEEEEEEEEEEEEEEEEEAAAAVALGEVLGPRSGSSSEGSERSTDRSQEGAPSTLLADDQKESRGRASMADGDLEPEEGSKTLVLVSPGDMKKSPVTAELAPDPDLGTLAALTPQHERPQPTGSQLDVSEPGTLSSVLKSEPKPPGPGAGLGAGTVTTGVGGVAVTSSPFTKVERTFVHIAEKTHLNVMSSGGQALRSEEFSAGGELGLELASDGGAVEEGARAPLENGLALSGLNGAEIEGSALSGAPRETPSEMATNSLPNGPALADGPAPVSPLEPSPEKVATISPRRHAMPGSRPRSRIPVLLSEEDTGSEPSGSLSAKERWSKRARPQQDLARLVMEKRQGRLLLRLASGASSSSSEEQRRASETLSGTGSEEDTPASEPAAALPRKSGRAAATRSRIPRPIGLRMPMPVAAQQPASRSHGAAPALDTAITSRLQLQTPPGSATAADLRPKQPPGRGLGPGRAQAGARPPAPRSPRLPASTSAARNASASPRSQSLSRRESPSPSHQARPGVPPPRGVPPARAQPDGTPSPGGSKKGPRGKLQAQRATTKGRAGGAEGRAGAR
T17 sequence (O75676 411-674 limits assumed): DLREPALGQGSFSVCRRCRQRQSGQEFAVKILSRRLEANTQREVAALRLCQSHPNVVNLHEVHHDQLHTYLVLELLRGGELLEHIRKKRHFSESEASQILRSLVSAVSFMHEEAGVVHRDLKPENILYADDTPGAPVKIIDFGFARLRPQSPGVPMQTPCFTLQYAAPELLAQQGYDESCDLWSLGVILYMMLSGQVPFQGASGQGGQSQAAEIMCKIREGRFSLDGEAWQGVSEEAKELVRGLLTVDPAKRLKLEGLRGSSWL
T7 sequence (Q9NQU5 whole entry): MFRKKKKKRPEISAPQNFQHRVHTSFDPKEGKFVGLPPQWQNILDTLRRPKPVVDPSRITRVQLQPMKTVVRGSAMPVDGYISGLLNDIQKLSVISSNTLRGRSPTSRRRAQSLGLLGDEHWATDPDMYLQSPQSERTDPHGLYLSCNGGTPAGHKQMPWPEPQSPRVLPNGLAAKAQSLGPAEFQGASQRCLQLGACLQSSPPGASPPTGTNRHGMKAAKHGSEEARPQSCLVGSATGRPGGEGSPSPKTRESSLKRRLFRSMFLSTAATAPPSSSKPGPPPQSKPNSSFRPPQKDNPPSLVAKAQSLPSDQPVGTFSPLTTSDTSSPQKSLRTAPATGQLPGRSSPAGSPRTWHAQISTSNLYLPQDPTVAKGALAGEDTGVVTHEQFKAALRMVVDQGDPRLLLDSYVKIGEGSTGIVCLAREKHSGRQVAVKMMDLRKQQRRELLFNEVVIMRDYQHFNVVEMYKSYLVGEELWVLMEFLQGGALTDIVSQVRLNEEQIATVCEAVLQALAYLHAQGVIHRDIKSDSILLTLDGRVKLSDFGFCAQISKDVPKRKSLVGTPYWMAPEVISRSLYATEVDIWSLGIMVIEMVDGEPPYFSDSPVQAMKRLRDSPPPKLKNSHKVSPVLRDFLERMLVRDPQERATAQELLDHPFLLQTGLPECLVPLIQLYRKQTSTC
T11 sequence (Q5TCY1 13-320): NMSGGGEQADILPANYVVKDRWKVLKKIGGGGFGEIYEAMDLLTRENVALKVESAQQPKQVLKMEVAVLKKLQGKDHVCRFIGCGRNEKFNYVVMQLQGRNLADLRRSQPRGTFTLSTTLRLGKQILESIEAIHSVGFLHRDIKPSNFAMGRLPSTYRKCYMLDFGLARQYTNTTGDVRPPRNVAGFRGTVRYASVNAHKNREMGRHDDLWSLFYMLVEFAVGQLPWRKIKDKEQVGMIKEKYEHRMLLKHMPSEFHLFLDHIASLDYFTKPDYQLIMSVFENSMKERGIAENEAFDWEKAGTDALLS
T1 sequence (O60674 849-1124 limits assumed): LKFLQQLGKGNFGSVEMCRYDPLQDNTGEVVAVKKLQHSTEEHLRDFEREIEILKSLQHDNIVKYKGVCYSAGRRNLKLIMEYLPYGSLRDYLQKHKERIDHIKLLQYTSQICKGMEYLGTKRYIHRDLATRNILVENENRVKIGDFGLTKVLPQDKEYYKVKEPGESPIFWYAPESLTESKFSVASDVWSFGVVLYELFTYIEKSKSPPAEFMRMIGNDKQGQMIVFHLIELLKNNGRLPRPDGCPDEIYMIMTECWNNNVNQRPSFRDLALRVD
T14 sequence (P48730 whole entry): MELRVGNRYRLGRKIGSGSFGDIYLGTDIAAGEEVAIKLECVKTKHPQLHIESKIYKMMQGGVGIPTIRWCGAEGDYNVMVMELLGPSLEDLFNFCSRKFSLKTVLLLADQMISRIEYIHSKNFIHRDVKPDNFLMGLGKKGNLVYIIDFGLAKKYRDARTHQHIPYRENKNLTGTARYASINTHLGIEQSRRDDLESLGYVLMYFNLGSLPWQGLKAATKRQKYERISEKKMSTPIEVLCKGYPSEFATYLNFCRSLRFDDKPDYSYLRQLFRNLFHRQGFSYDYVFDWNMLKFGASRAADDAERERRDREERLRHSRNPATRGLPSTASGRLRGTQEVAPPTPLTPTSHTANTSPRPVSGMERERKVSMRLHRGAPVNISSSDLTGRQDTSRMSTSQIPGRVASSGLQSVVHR
T6 sequence (O96013 whole entry): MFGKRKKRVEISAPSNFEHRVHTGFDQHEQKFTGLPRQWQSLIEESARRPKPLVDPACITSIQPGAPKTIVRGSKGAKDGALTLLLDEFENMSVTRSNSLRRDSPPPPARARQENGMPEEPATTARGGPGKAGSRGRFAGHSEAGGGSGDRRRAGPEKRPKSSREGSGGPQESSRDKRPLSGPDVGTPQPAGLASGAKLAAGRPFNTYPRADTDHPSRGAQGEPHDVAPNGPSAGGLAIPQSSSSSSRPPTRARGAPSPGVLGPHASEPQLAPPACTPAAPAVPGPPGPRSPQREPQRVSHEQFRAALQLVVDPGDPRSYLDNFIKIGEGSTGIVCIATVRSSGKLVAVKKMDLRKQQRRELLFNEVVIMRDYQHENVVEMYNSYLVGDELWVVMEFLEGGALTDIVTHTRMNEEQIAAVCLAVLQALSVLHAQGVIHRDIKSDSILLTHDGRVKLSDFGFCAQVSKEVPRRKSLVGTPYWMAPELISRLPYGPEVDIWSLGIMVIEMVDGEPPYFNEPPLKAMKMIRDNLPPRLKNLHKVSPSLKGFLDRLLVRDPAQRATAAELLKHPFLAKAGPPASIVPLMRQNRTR
T4 sequence (P45985 whole entry): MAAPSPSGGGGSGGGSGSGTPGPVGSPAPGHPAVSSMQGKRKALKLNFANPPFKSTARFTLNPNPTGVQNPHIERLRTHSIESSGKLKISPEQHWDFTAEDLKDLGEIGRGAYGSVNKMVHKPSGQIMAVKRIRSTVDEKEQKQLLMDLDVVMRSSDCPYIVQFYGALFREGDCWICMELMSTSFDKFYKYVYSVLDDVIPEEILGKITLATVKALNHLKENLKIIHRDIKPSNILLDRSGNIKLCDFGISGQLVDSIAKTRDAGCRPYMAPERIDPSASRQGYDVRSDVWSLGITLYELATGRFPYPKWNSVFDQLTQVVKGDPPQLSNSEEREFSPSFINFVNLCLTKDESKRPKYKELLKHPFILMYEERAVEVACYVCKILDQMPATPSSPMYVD
T2 sequence (Q9Y2U5 whole entry): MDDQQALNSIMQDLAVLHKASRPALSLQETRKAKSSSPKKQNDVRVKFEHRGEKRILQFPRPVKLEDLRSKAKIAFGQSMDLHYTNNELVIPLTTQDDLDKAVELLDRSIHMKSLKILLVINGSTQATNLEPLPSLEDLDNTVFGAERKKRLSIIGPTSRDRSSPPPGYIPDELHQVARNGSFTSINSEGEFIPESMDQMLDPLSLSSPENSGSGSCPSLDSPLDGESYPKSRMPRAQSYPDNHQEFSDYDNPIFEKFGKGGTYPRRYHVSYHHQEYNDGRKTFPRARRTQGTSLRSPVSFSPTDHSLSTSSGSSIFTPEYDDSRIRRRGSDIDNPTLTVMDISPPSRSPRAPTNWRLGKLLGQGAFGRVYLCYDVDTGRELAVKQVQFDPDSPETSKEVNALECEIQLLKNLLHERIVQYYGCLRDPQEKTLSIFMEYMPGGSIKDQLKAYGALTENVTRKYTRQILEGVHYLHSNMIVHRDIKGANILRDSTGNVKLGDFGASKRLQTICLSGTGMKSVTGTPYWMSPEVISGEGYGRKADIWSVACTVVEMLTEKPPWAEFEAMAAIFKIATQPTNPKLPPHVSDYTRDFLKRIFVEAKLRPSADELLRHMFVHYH

IC50 (NLuc-TTBK1; [4]) [µM] | IC50 (NLuc-TTBK1; [5]) [µM] | SMILES | # scanMAX kinases with PoC < 10 [1] | S10(1 μM) [1] | MEK4 (MKK4) % control at 1000nM / DiscoverX PoC value (MEK4) [% control] | MYLK4 % control at 1000nM / DiscoverX PoC value (MYLK4) [% control] | PIKFYVE % control at 1000nM / DiscoverX PoC value (PIKfyve) [% control] | ΔTm TTBK1 (TTBK1 kinase domain) [°C] | CSNK1D % control at 1000nM / DiscoverX PoC value (CSNK1D) [% control] | PRKCE % control at 1000nM (PRKCE) [% control] | RPS6KA4(Kin.Dom.2-C-terminal) % control at 1000nM [3] [% control] | further results
 |  | CC(C)(O)C#Cc1ccc2[nH]c3c(c2c1)-c1nc(N)ncc1CCC3 [AMG28, reference compound] | 21 | 0.052 | 8.6 | 2.8 | 0.4 |  |  |  |  | percent of control (binding) at 1 µM ([2]; read-out: JAK2(JH1domain-catalytic) % control at 1000nM): 6.9%; binding, percent of control at 1 µM (MAP3K2; read-out: MAP3K2 % control at 1000nM): 3.7%; percent of control (binding) at 1 µM (MAP3K3; read-out: MAP3K3 % control at 1000nM): 7.2%; binding, percent of control at 1 µM (PAK4; read-out: PAK4 % control at 1000nM): 5.7%; percent of control (binding) at 1 µM (PAK6; read-out: PAK6 % control at 1000nM): 2.9%; percent of control (kinase binding) at 1 µM (PAK7; read-out: PAK7 % control at 1000nM): 0.3%; percent of control (binding) at 1 µM (PRKX; read-out: PRKX % control at 1000nM): 4.3%
> 30 | 19 | CC(C)(O)C#Cc1ccc2[nH]c3c(c2c1)-c1nc(N)ncc1CCCC3 [Compound 2] |  |  |  |  |  |  |  |  |  | 
 |  | CC(C)(O)C#Cc1ccc2[nH]cc(-c3ccnc(N)n3)c2c1 [Compound 3] | 34 | 0.084 |  |  |  | 6.9 | 8.4 | 6.8 | 0.1 | AURKB % control at 1000nM (AURKB): 3.7 % control; BRAF(V600E) % control at 1000nM (BRAF(V600E)): 6.5 % control; JAK2(JH1domain-catalytic) % control at 1000nM ([2]; 1 μM): 0.5 % control; MAP3K2 % control at 1000nM (MAP3K2; 1 μM): 0.8 % control; MAP3K3 % control at 1000nM (MAP3K3; 1 μM): 7.6 % control; PAK4 % control at 1000nM (PAK4; 1 μM): 8.3 % control; PAK6 % control at 1000nM (PAK6; 1 μM): 6.7 % control; PAK7 % control at 1000nM (PAK7; 1 μM): 0.4 % control; PFCDPK1(P.falciparum) % control at 1000nM (PFCDPK1(P.falciparum)): 7.8 % control; PRKX % control at 1000nM (PRKX; 1 μM): 3.5 % control
> 30 | > 30 | COC(C)(C)C#Cc1ccc2[nH]c3c(c2c1)-c1nc(N)ncc1CCC3 [Compound 11] |  |  |  |  |  |  |  |  |  | 

SMILES | IC50 (NLuc-TTBK1; [4]) [µM] | IC50 (NLuc-TTBK1; [5]) [µM] | # scanMAX kinases with PoC < 10 [1] | S10(1 μM) [1] | MEK4 (MKK4) % control at 1000nM / DiscoverX PoC value (MEK4) [% control] | MYLK4 % control at 1000nM / DiscoverX PoC value (MYLK4) [% control] | PIKFYVE % control at 1000nM / DiscoverX PoC value (PIKfyve) [% control] | ΔTm TTBK1 (TTBK1 kinase domain) [°C] | CSNK1D % control at 1000nM / DiscoverX PoC value (CSNK1D) [% control] | PRKCE % control at 1000nM (PRKCE) [% control] | RPS6KA4(Kin.Dom.2-C-terminal) % control at 1000nM [3] [% control] | further results
CC(C)(O)C#Cc1ccc2[nH]c3c(c2c1)-c1nc(N)ncc1CC3 [Compound 1] | > 30 | 2.5 | 20 | 0.05 | 7.3 | 9.4 | 0 | 6.1 | 3 | 3.1 | 7.3 | CHEK2 (CHK2) % control at 1000nM / DiscoverX PoC value (CHEK2): 7.9 % control; CSNK1E % control at 1000nM / DiscoverX PoC value (CSNK1E): 6.2 % control
